Results published in patent publication US5994041A, “Process for buffering concentrated aqueous slurries” (priority 1998, dated 1999).
Entries after “also recorded” stand apart in the source; their conditions may differ.

assay: Electroacoustic sonic amplitude (ESA) as a function of pH; format: physicochemical; settings: FD1 slurries

With `CC1=NN(c2ccc(C(=O)O)cc2)C(=O)C1=CC=Cc1c(C)nn(-c2ccc(C(=O)O)cc2)c1O` [FD1] the intrinsic electrokinetic charge was “negative”.

same assay, conditions: FD1 versus FD2

With `CC1=NN(c2ccc(C(=O)O)cc2)C(=O)C1=CC=Cc1c(C)nn(-c2ccc(C(=O)O)cc2)c1O` [FD1] the “lowest apparent pKa compared with FD2” value was “three pH units lower than that observed for FD2”.

same assay, conditions: above pH 5, FIG. 2

For `CC1=NN(c2ccc(C(=O)O)cc2)C(=O)C1=CC=Cc1c(C)nn(-c2ccc(C(=O)O)cc2)c1O` [FD1], the “solubility of the dye with increasing pH” value was “marked increased solubility”.

assay: not given; settings: 18° C.; cited from earlier work

In the case of `O=S(=O)(O)CCCNCCNCCCS(=O)(=O)O` [N,N'-Bis(3-sulphopropyl) ethylenediamine], the pKa is listed as 6.65.

same assay, conditions: 20° C.; cited from earlier work

Compared with `O=S(=O)(Nc1ccccc1)c1ccccc1` [C6 H5 --SO2 NH--C6 H5], `Cc1ccc(NS(=O)(=O)c2ccccc2)cc1` [p-CH3 --C6 H4 --NHSO2 --C6 H5] is higher in pKa: 8.31 for the first, 8.64 for the second.

Compared with `COc1ccc(NS(=O)(=O)c2ccccc2)cc1` [p-CH3 O--C6 H4 --NHSO2 --C6 H5], `CC(=O)c1ccc(S(=O)(=O)Nc2ccccc2)cc1` [p-COCH3 --C6 H4 --SO2 NH--C6 H5] is lower in pKa: 8.70 for the first, 6.94 for the second.

Going from `NS(=O)(=O)c1ccc(Cl)cc1` [p-Cl--C6 H4 --SO2 NH2] to `NS(=O)(=O)c1ccc([N+](=O)[O-])cc1` [p-NO2 --C6 H4 --SO2 NH2], the pKa falls from 9.77 to 9.14.

For `O=C(O)c1ccc(S(=O)(=O)Nc2ccccc2)cc1` [p-CO2 H--C6 H4 --SO2 NH--C6 H5], the pKa2 is given as 7.75.

same assay, conditions: 25° C.; cited from earlier work

Compared with `O=C1NCCS(=O)(=O)N1`, `O=C1CS(=O)(=O)NC(=O)N1` [drawing 3] is lower in pKa: 4.51 for the first, 2.88 for the second.

Going from `O=S1(=O)CCCN1` to `O=C1CS(=O)(=O)NC(=O)N1` [drawing 5], the pKa falls from 11.39 to 11.00.

First: O=S(=O)(Nc1c(Cl)cc(Cl)cc1Cl)C(F)(F)F [2,4,6-trichloro-C6 H2 --NHSO2 CF3]
Second: O=S(=O)(Nc1ccc(Cl)cc1Cl)C(F)(F)F [2,4-dichloro-C6 H3 --NHSO2 CF3]
The pKa of the first is lower: 2.70 for the first, 2.96 for the second.

Going from `O=S(=O)(Nc1ccc(F)cc1F)C(F)(F)F` [2,4-difluoro-C6 H3 --NHSO2 CF3] to `Cc1cc(Cl)ccc1NS(=O)(=O)C(F)(F)F` [2-CH3-4-Cl--C6 H3 --NHSO2 CF3], the pKa rises from 3.44 to 3.90.

First: O=S(=O)(Nc1ccc(Cl)cc1C(F)(F)F)C(F)(F)F [2-CF3-4-Cl--C6 H3 --NHSO2 CF3]
Second: O=S(=O)(Nc1cccc(C(F)(F)F)c1)C(F)(F)F [3,3-CF3 --C6 H4 --NHSO2 CF3]
The pKa of the first is lower: 2.59 for the first, 3.70 for the second.

Going from `OCc1c[nH]cn1` [4-Hydroxylmethylimidazole] to `Cc1c[nH]cn1` [4-Methylimidazole], the pKa rises from 6.39 to 7.67.

Going from `O=C1CC(=O)NC(=O)N1` [Barbituric acid] to `O=c1[nH]c(=O)c2[nH]c(=O)[nH]c2[nH]1` [Uric acid], the pKa rises from 4.04 to 5.83.

First: O=S(=O)(Nc1ccccc1)C(F)F [C6 H5 --NHSO2 CF2 H]
Second: NNS(=O)(=O)c1ccccc1 [C6 H5 --SO2 NHNH2]
The pKa of the first is lower: 6.19 for the first, 10.60 for the second.

First: CC(=O)NS(=O)(=O)c1ccccc1 [C6 H5 --SO2 NHCOCH3]
Second: O=S(=O)(NO)c1ccccc1 [C6 H5 --SO2 NHOH]
The pKa of the first is lower: 4.72 for the first, 9.34 for the second.

`CCS(=O)(=O)NC` [CH3 CH2 SO2 NHCH3] and `CNS(C)(=O)=O` [CH3 SO2 NHCH3] are within 0.2 log units of each other in pKa: 11.84 for the first, 11.79 for the second.

First: CS(=O)(=O)NS(C)(=O)=O [CH3 SO2 NHSO2 CH3]
Second: CC(=O)NS(=O)(=O)c1ccc(C)cc1 [p-CH3 --C6 H4 --SO2 NHCOCH3]
The pKa of the first is lower: 1.36 for the first, 4.92 for the second.

Compared with `O=C(O)CNC(=O)c1ccccc1` [Hippuric acid], `Nc1ccccc1C(=O)O` [o-Aminobenzoic acid] is lower in pKa: 3.64 for the first, 2.15 for the second.

First: NS(=O)(=O)C(F)F [NH2 SO2 CF2 H]
Second: NS(=O)(=O)CF [NH2 SO2 CFH2]
The pKa of the first is lower: 8.06 for the first, 9.32 for the second.

First: c1ccc2ncccc2c1 [Quinoline]
Second: CS(=O)(=O)Nc1cccc(C(=O)c2ccccc2)c1 [m-C6 H5 CO--C6 H4 --NHSO2 CH3]
The pKa of the first is lower: 5.00 for the first, 8.19 for the second.

First: O=C(O)C(Cl)(Cl)Cl [Trichloroacetic acid]
Second: O=C(NO)c1ccc(Br)cc1 [p-Br--C6 H4 --CONHOH]
The pKa of the first is lower: 0.66 for the first, 8.61 for the second.

Compared with `O=C(c1ccccc1)c1cccc(NS(=O)(=O)C(F)(F)F)c1` [m-C6 H5 CO--C6 H4 --NHSO2 CF3], `O=C(c1ccccc1)c1ccc(NS(=O)(=O)C(F)(F)F)cc1` [p-C6 H5 CO--C6 H4 --NHSO2 CF3] is lower in pKa: 3.50 for the first, 3.22 for the second.

Compared with `O=C(c1ccccc1)c1cccc(NS(=O)(=O)CF)c1` [m-C6 H5 CO--C6 H4 --NHSO2 CFH2], `CC(=O)NS(=O)(=O)Nc1cccc([N+](=O)[O-])c1` [m-NO2 --C6 H4 --NHSO2 NHCOCH3] is lower in pKa: 6.77 for the first, 3.97 for the second.

First: O=C(NO)c1cccc([N+](=O)[O-])c1 [m-NO2 --C6 H4 --CONHOH]
Second: O=[N+]([O-])c1cccc(S(=O)(=O)NO)c1 [m-NO2 --C6 H4 --SO2 NHOH]
The pKa of the first is lower: 8.20 for the first, 8.60 for the second.

Going from `NNc1cccc([N+](=O)[O-])c1` [m-NO2 --C6 H4 --NHNH2] to `NS(=O)(=O)c1cccc([N+](=O)[O-])c1` [m-NO2 --C6 H4 --SO2 NH2], the pKa falls from 9.78 to 9.40.

Compared with `NS(=O)(=O)c1ccc(Br)cc1` [p-Br--C6 H4 --SO2 NH2], `NNS(=O)(=O)c1ccc(Br)cc1` [p-Br--C6 H4 --SO2 NHNH2] is higher in pKa: 9.87 for the first, 10.36 for the second.

Compared with `CC(=O)NS(=O)(=O)c1ccc(Br)cc1` [p-Br--C6 H4 --SO2 NHCOCH3], `O=S(=O)(NO)c1ccc(Br)cc1` [p-Br--C6 H4 --SO2 NHOH] is higher in pKa: 4.52 for the first, 9.08 for the second.

Going from `Cc1ccc(C(=O)NO)cc1` [p-CH3 --C6 H4 --CONHOH] to `Cc1ccc(S(=O)(=O)NO)cc1` [p-CH3 --C6 H4 --SO2 NHOH], the pKa rises from 8.99 to 9.40.

Compared with `Cc1ccc(S(=O)(=O)NN)cc1` [p-CH3 --C6 H4 --SO2 NHNH2], `Cc1ccc(N)cc1` [p-Toluidine] is lower in pKa: 10.71 for the first, 5.30 for the second.

`CCc1ccc(NS(=O)(=O)C(F)(F)F)cc1` [p-CH3 CH2 --C6 H4 --NHSO2 CF3] and `COc1ccc(NS(=O)(=O)C(F)(F)F)cc1` [p-CH3 O--C6 H4 --NHSO2 CF3] are within 0.2 log units of each other in pKa: 4.82 for the first, 4.90 for the second.

In the case of `CC(=O)c1ccc(NS(=O)(=O)C(F)(F)F)cc1` [p-CH3 CO--C6 H4 --NHSO2 CF3], the pKa is listed as 3.29.

First: CN(C)CCN [Dimethylaminoethylamine]
Second: CCN(CC)CCN(CC)CC [Tetraethylethylenediamine]
The pKa2 of the first is higher: 6.50 for the first, 5.89 for the second.

Going from `O=P(O)(O)OC(CO)CO` [Glycerol-2-phosphoric acid] to `OCCN(CCO)CCN(CCO)CCO` [Tetrakis-(2-hydroxyethyl) ethylenediamine], the pKa2 falls from 6.65 to 4.5.

First: O=C(O)c1ccccc1C(=O)O [Phthalic acid]
Second: O=C(O)/C=C(\CC(=O)O)C(=O)O [trans-Aconitic acid]
The pKa2 of the first is higher: 5.41 for the first, 4.46 for the second.

In the case of `O=C(O)/C=C(\CC(=O)O)C(=O)O` [trans-Aconitic acid], the pKa1 is listed as 2.80.

assay: not given; settings: Texter, Langmuir, 8, 291 (1992); cited from earlier work

For `CC1=NN(c2ccc(C(=O)O)cc2)C(=O)C1=Cc1c(C)nn(-c2ccc(C(=O)O)cc2)c1O` [FD2], the intrinsic electrokinetic charge is listed as “negative”.

same assay, conditions: slurry in the absence of surfactant; Texter, Langmuir, 8, 291 (1992); cited from earlier work

For `CC1=NN(c2ccc(C(=O)O)cc2)C(=O)C1=Cc1c(C)nn(-c2ccc(C(=O)O)cc2)c1O` [FD2], the “S-shaped ESA transition over the pH interval” value is listed as 4-6.

assay: pH measurement of FD1 slurry on addition of buffering salt; format: physicochemical; settings: 0.1 mole/L aqueous salt added to S1 slurry
Experimental: Measurements of pH were made using a Corning combination pH electrode, calibrated with VWR buffers of pH 4.0 and pH 7.0, using a Radiometer Copenhagen PHM63 pH meter. Equilibrated measurements were taken at about 24° C. while stirring the solutions or slurries.
About 97.0 g of the above described S1 slurry were placed in a 200 mL beaker upon a magnetic stirrer, and this slurry was moderately stirred using a magnetic stirring bar.
About 93.9 g of the above described S1 slurry were placed in a 200 mL beaker upon a magnetic stirrer, and was moderately stirred. […] Aliquots of 0.1 mole/L aqueous sodium citrate were added, and pH was recorded after each addition.
About 93.3 g of the above described S1 slurry were placed in a 200 mL beaker and stirred.

For `CC(=O)O` [sodium acetate], the “effect of added buffering salt on slurry pH” value was “increases the slurry pH to a significant extent; also recorded: significantly increases the slurry pH”.
For `O=C([O-])c1ccccc1O.[Na+]` [sodium salicylate], the “effect of added buffering salt on slurry pH” value was “provides some pH control, but that the effect is less than that exhibited comparatively to the earlier examples”.
